Experimental data taken from patent US6048892A, “Ester compound pesticide containing thereof” (Sumitomo Chemical Company, Limited, priority 1999, dated 2000).

Assays:
[1] = system: southern corn rootworm (Diabrotica undecimpunctata howardi); experiment: Biological Test 3: mortality of hatched larvae and eggs; assay type: in vivo; conditions: 192 h, read-out: mortality of the hatched larvae and eggs
Description: Filter paper of 5.5 cm in diameter was laid in the bottom of a polyethylene cup (diameter: 5.5 cm). […] After 8 days, the mortality of the hatched larvae and eggs was examined.

[2] = system: German cockroaches (Blattella germanica); experiment: Biological Test 5: mortality of male German cockroaches low sensitive to pyrethroids, treated filter paper; assay type: in vivo; conditions: 144 h
Description: (§1) Filter paper of 5.5 cm in diameter was laid in the bottom of a polyethylene cup (diameter: 5.5 cm). After 0.7 ml of a 500 ppm aqueous emulsion obtained by diluting each emulsifiable concentrate prepared according to the formulation example 1 was dropped on the filter paper and approximately 30 mg of sucrose as bait was uniformly scattered. Two male German cockroaches (Blattella germanica), which were low sensitive to pyrethroids, were left in the cup with a cover. After six days, the mortality was examined.

[3] = system: brown planthopper (Nilaparvata lugens); experiment: Biological Test 2: mortality of larvae on dipped rice plant stalk; assay type: in vivo; conditions: 144 h, read-out: mortality of the larvae
Description: A stalk of a rice plant was dipped for one minute in a 500 ppm aqueous emulsion obtained by diluting each emulsifiable concentrate of the present compounds prepared according to the formulation example 1. The rice plant stalk was air-dried and placed in a polyethylene cup (diameter: 5.5 cm) where filter paper (diameter: 5.5 cm) impregnated with 1 ml of water was put. Approximately 30 larvae of brown planthopper (Nilaparvata lugens) were put in the polyethylene cup. After 6 days, the mortality of the larvae was examined.

[4] = system: common mosquitoes (Culex pipiens pallens); experiment: Biological Test 7: knock-down of mosquitoes by sprayed oil solution; assay type: in vivo; conditions: 0.7 ml of 0.1% oil solution sprayed in 0.34 m^3 chamber; after 15 minutes
Description: Ten female common mosquitoes (Culex pipiens pallens) were left in a glass chamber (70 cm×70 cm×70 cm: 0.34 m^3). 0.7 ml of 0.1% oil solution prepared for each of the present compounds according to the formulation example 7 was sprayed with a spray gun at 0.8 atmospheric pressure. After 15 minutes, the rate of knocked-down mosquitoes was examined.

[5] = system: webbing clothes moth (Tineola bisselliella); experiment: Biological Test 12: topical application to larvae of webbing clothes moth, mortality and fabric damage; assay type: in vivo; conditions: for degree of damage of the wool muslin fabric: 3 μg/insect, after 7 days; for mortality at 0.003 mg: Tineola bisselliella, 168 h
Description: Each of the present compounds diluted with acetone to a predetermined concentration was applied to ten middle instar larvae of webbing clothes moth (Tineola bisselliella) at the central part of the back so as to give the active ingredient in a dose of 3 μg/insect. A wool muslin fabric (2 cm×2 cm in size) was given to the webbing clothes moths as the food. After 7 days, the mortality and the degree of damage of the wool muslin fabric by the moths were examined (two replicate).

[6] = system: common mosquitoes (Culex pipiens pallens); experiment: Biological Test 11: mosquitoes in cup over treated aluminum plate without direct contact, mortality; assay type: in vivo; conditions: 24 h
Description: After 0.64 ml of a 0.05 (w/v) % acetone solution of the present compounds was dropped into an aluminum plate (bottom diameter: 7 cm), acetone was air-dried. Ten female common mosquitoes (Culex pipiens pallens) were left in a polyethylene cup (diameter: 9 cm; depth: 4.5 cm) and the cup was sealed with a 16-mesh nylon net to prevent direct contact of the mosquitoes with the compound. The cup was placed upside down on the aluminum plate at 25° C. for 120 minutes. The cup was then removed from the aluminum plate, and water and feed were given to the mosquitoes. After 24 hours, the mortality was examined (two replicate).

[7] = system: tobacco cutworm (Spodoptera litura); experiment: Biological Test 1: mortality of larvae on impregnated artificial bait; assay type: in vivo; conditions: 144 h, read-out: mortality of the larvae
Description: Emulsifiable concentrates were prepared for each of the present compounds according to the formulation example 1. Thirteen grams of artificial bait for tobacco cutworm (Spodoptera litura) were placed in a polyethylene cup (diameter: 11 cm) and impregnated with 2 ml of the 500 ppm emulsion prepared by diluting the emulsifiable concentrates with water. Ten 4-instar larvae of Spodoptera litura were put in the polyethylene cup. After 6 days, the mortality of the larvae was examined.

[8] = system: common mosquitoes (Culex pipiens pallens); experiment: Biological Test 6: mortality of last-instar mosquito larvae in water; assay type: in vivo; conditions: 24 h, read-out: mortality of the common mosquitoes
Description: 0.7 ml of aqueous emulsion, obtained by diluting emulsifiable concentrate prepared for each of the present compounds according to the formulation example 1, was added to 100 ml of ion-exchanged water (concentration of active ingredient: 3.5 ppm). Twenty last-instar larvae of common mosquitoes (Culex pipiens pallens) were left in the water. After one day, the mortality of the common mosquitoes was examined.

[9] = system: webbing clothes moth (Tineola bisselliella); experiment: Biological Test 14: treated filter paper in cardboard box, percent moribund, fabric damage and persistence; assay type: in vivo; conditions: 36 mg on filter paper
Description: A filter paper (3.2 cm×3.2 cm in size) treated with 36 mg of each of the present compounds and two wool muslin fabrics (25 cm×25 cm in size) were hung down at the upper part of a corrugated cardboard box (29 cm×29 cm×29 cm in size). After standing at 25° C. and a humidity of 60% for 1 week, two tea-strainer balls holding 7 to 10 middle instar larvae of webbing clothes moth (Tineola bisselliella) and one piece of wool muslin cloth (2 cm×2 cm in size) were hung down at the upper part of the box. The box was closed with a lid. After one week, the box was opened, and the percent moribund and the degree of damage of the wool muslin cloth by the moths were examined. The same tests was repeated 2 weeks, 3 weeks and 5 weeks after the treatment to examine the persistance of the present compound. The degree of damage was represented by "-" in no damage, "+" in slight damage, "++" in heavy damage and "+++" in severe damage.

[10] = system: common mosquitoes (Culex pipiens pallens); experiment: Biological Test 8: knock-down of mosquitoes by mosquito-coil; assay type: in vivo; conditions: 1.0 g of 0.3% mosquito-coil in 0.34 m^3 chamber; after 15 minutes
Description: Mosquito-coil containing the present compound in an amount of 0.3% was prepared according to the formulation example 10 for the present compounds. Ten female common mosquitoes (Culex pipiens pallens) were left in a glass chamber (70 cm×70 cm×70 cm: 0.34 m^3) and 1.0 g of 0.3% mosquito-coil having both ends lit was placed in the glass chamber. After 15 minutes, the rate of knocked-down mosquitoes was examined.

[11] = system: houseflies (Musca domestica); experiment: Biological Test 4: mortality of female houseflies low sensitive to pyrethroids, treated filter paper; assay type: in vivo; conditions: 24 h
Description: as §1, with “Ten female houseflies (Musca domestica),” for “Two male German cockroaches (Blattella germanica),”, “one day,” for “six days,”

[12] = system: webbing clothes moth (Tineola bisselliella); experiment: Biological Test 13: volatile agent in cup, mortality and fabric damage; assay type: in vivo; conditions: volatile agent (100 μg on filter paper), 950 cm^3 cup, 25° C., 1 week; for mortality: 10080 min
Description: A wool muslin fabric (2 cm×2 cm in size) was placed on the bottom of a polyethylene cup (bottom diameter: 10 cm, opening part diameter: 12.5 cm, height: 9.5 cm, volume: 950 cm^3). Ten middle instar larvae of webbing clothes moth (Tineola bisselliella) were put in the cup and each of the volatile agents prepared according to the formulation example 14 was hung from the cap in the interior of the cup. After standing at 25° C. for 1 week, the cup was opened, and the mortality and the degree of damage of the wool muslin fabric by the moths were examined (two replicate).

[13] = system: houseflies (Musca domestica); experiment: Biological Test 17: topical application of compound (2) with piperonyl butoxide, mortality; assay type: in vivo; conditions: after 24 hours
Description: The combination rate of piperonyl butoxide to the present compound was 0, 2, 4, 8 and 16 times. The mixture was dissolved in acetone. The acetone solution (0.5 μL) was applied to 10 female houseflies (Musca domestica) at the back thoracic region. After 24 hours, the number of dead insects was observed (2 repetition) and mortality was calculated.

[14] = Toxicity Test: acute oral LD50; conditions: rat, in vivo, corn oil, fasted male 7-week old rats, after 7 days
Description: After subjecting the rats to a twenty-hour fasting, 0.1 ml of the diluted solution per 10 g weight was forcibly applied into the stomach of four male 7-week old rats. The rats were given food and water four hours after the application and thereafter regularly fed and watered, and kept in a cage. After 7 days, the mortality was examined for the rats and LD50 was calculated.

Compound | mortality at 50 ppm [1] | mortality at 500 ppm [2] | mortality at 500 ppm [3] | rate of knocked-down mosquitoes [4] | degree of damage of the wool muslin fabric [5] | mortality at 0.003 mg [5] | mortality at 500 µg/mL [6] | mortality at 500 µg/mL [7] | mortality at 3.5 ppm [8] | degree of damage ([9]; After 1 week) | degree of damage ([9]; After 2 weeks) | degree of damage ([9]; After 3 weeks) | degree of damage ([9]; After 5 weeks) | rate of knocked-down mosquitoes [10] | mortality at 500 ppm [11] | degree of damage of the wool muslin fabric [12] | mortality [12] | LD50 at 168 h [14] | further results
CCCc1ccc(COC(=O)[C@@H]2[C@H](/C=C(\Cl)C(F)(F)F)C2(C)C)o1 (relative stereo) [(3), 5-propyl-2-furfuryl (1RS,cis)-3-(Z-2-chloro-3,3,3-trifluoroprop-1-enyl)-2,2-dimethylcyclopropanecarboxylate] | 100% | 100% | ≥ 90% | ≥ 90% | no damage | 100% | 100% | 100% | ≥ 90% | - | - | - | - | 100% | 100% | no damage | 100% |  | 
CCc1ccc(COC(=O)[C@@H]2[C@H](/C=C(\Cl)C(F)(F)F)C2(C)C)o1 (relative stereo) [(2), 5-ethyl-2-furfuryl (1RS,cis)-3-(Z-2-chloro-3,3,3-trifluoroprop-1-enyl)-2,2-dimethyl-cyclopropanecarboxylate] | 100% | 100% | ≥ 90% | ≥ 90% | no damage | 100% | 100% | 100% | ≥ 90% | - | - | - | - | 100% | 100% | no damage | 100% |  | Mortality (%) ([13]; compound (2) 0.2 μg/female, piperonyl butoxide 0): 30%; Mortality (%) ([13]; compound (2) 0.2 + piperonyl butoxide 0.4 μg/female): 85%; Mortality (%) ([13]; compound (2) 0.2 + piperonyl butoxide 0.8 μg/female): 100%; Mortality (%) ([13]; compound (2) 0.2 + piperonyl butoxide 1.6 μg/female): 100%; Mortality (%) ([13]; compound (2) 0.2 + piperonyl butoxide 3.2 μg/female): 100%
C#CCc1ccc(COC(=O)C2C(/C=C(\Cl)C(F)(F)F)C2(C)C)o1 (stereo not shown) [C, reference compound] |  |  |  |  |  |  |  |  |  | +++ | +++ | +++ | +++ |  |  |  |  | < 100 mg/kg | 
C=CCc1ccc(COC(=O)[C@@H]2[C@H](/C=C(\Cl)C(F)(F)F)C2(C)C)o1 (relative stereo) [(4), 5-allyl-2-furfuryl (1RS,cis)-3-(Z-2-chloro-3,3,3-trifluoroprop-1-enyl)-2,2-dimethylcyclopropanecarboxylate] | 100% | 100% | ≥ 90% | ≥ 90% | no damage | 100% | 100% | 100% | ≥ 90% | - | - | - | - | 100% | 100% | no damage | 100% |  | 
CC1(C)C(/C=C(\Cl)C(F)(F)F)C1C(=O)OCc1ccc(C(F)F)o1 (stereo not shown) [B, reference compound] |  |  |  |  |  |  |  |  |  | +++ | +++ | +++ | +++ |  |  |  |  |  | 
CC1(C)C(/C=C(\Cl)C(F)(F)F)C1C(=O)OCc1coc(Cc2ccccc2)c1 (stereo not shown) [A, reference compound] |  |  |  |  |  |  |  |  |  | +++ | +++ | +++ | +++ |  |  |  |  | < 50 mg/kg | 
